From ChEMBL document CHEMBL1135384, “Convenient synthesis and evaluation of enzyme inhibitory activity of several N-alkyl-, N-phenylalkyl, and cyclic isourea derivatives of 5a-carba-alpha-DL-fucopyranosylamine” (Bioorg Med Chem Lett, 2002) come the findings set out here.

In one test the target is T1, Beta-galactosidase (Bos taurus, UniProt Q58D55).
T1 sequence (Q58D55 whole entry): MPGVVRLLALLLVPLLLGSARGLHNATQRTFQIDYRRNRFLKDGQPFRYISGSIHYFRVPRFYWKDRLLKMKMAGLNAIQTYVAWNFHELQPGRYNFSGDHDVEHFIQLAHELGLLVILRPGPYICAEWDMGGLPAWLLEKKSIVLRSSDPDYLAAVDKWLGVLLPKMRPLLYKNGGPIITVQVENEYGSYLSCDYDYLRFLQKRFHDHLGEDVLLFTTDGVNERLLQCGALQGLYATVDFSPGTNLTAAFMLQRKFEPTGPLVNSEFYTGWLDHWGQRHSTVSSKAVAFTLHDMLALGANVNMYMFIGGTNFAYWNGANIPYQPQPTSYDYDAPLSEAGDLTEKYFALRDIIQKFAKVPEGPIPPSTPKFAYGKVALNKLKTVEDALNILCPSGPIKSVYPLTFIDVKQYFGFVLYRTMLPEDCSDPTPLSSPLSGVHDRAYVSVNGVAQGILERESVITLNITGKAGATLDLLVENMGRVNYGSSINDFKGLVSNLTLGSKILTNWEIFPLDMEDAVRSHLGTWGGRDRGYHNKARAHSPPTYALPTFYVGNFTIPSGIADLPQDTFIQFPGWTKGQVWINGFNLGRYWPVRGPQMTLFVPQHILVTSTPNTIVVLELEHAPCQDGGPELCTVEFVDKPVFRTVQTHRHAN
The experiment in a line: Inhibitory activity against Beta-galactosidase in bovine liver was determined. It is filed as tissue-based.
Turning to `CCCCCCCCNC1CC(C)[C@@H](O)[C@H](O)[C@H]1O` (some centres undefined), the midpoint of inhibition, the IC50, lay at 37 µM.

In another test the target is T1, Beta-galactosidase. The experiment in a line: Inhibitory activity against Beta-galactosidase in bovine liver was determined;NI means no inhibition.
For the compound `CCNC1CC(C)[C@@H](O)[C@H](O)[C@H]1O` (some centres undefined), the IC50 result is given as “Not Active”. Still for that read-out and setting: then `CC1CC2N=C(NCc3ccccc3)O[C@@H]2[C@@H](O)[C@@H]1O` (some centres undefined), with “Not Active”.

Take `CCCCNC1CC(C)[C@@H](O)[C@H](O)[C@H]1O` (some centres undefined): the IC50 result is “Not Active”. For the compound `CC1CC2N=C(Nc3ccccc3)O[C@@H]2[C@@H](O)[C@@H]1O` (some centres undefined), the IC50 entry is “Not Active”. With `CCCCNC1=NC2CC(C)[C@@H](O)[C@H](O)[C@H]2O1` (some centres undefined), the IC50 entry was “Not Active”. `C[C@@H]1C[C@@H](N)C(O)C(O)[C@@H]1O` (single isomer, unassigned): the half-maximal inhibitory concentration (IC50) entry was “Not Active”. In the case of `C[C@@H]1C[C@H](N)C(O)C(O)[C@@H]1O` (single isomer, unassigned), the IC50 entry is “Not Active”.

Take `C[C@@H]1NC[C@@H](O)[C@H](O)[C@@H]1O` [DEOXYFUCONOJIRIMYCIN]: the IC50 entry is “Not Active”.

Broadly, the IC50 is the concentration at which inhibition is half-maximal.
